{
  "source": "patent US10364216B2",
  "about": "“Alkenyl sulfate ester or salt thereof” (Kao Corporation, priority 2013, dated 2019)",
  "key": {"[1]": {"test": "Action of reinforcing sweetness (previous intake of trans-3-octenyl sulfate)", "type": "in vivo, human", "conditions": "5 mM, 60 seconds before sucralose or glycyrrhizin 0.25 mM", "protocol": "To six examiners, 4 kinds of 10 mL aqueous solutions of sucrose standard (2.5, 5.0, 7.5 and 10.0 wt %) were presented. The examiners kept each of the solutions in their mouth for 5 seconds or so, and then spat the solution out, and were asked to consider the sweetness intensity at that time (0 to 15) to be 2.5, 5, 7.5 and 10, respectively. Next, the examiners kept 10 mL aqueous solution of sucralose (0.25 mM) in their mouth for 5 seconds or so without knowing the kind and the concentration of the sweetener, and then spat the solution out, and compared the sweetness intensity at that time with that of the aqueous sucrose standard solution, and evaluated the sweetness intensity with a number in a range of 0 to 15. Subsequently, the examiners kept 10 mL solution of 5 mM trans-3-octenyl sulfate in advance in their mouth for 5 seconds or so in advance, and then spat the solution out, and after passage of 60 seconds, the examiners kept 10 mL aqueous solution of sucralose (0.25 mM) in their mouth for 5 seconds or so, and then spat the solution out, and compared the sweetness intensity at that time with that of the aqueous sucrose standard solution, and evaluated the sweetness intensity with a number in a range of 0 to 15.\nTo six examiners, 4 kinds of 10 mL aqueous sucrose standard solutions (2.5, 5.0, 7.5 and 10.0 wt %) were presented. The examiners kept each of the solutions in their mouth for 5 seconds or so, and then spat the solution out, and were asked to consider the sweetness intensity at that time (0 to 15) to be 2.5, 5, 7.5 and 10, respectively. Next, the examiners kept 10 mL aqueous solution of glycyrrhizin (0.25 mM) in their mouth for 5 seconds or so without knowing the kind and the concentration of the sweetener, and then spat the solution out, and compared the sweetness intensity at that time with that of the aqueous sucrose standard solution, and evaluated the sweetness intensity with a number in a range of 0 to 15. Subsequently, the examiners kept 10 mL solution of 5 mM trans-3-octenyl sulfate in their mouth for 5 seconds or so in advance, and then spat the solution out, and after passage of 60 seconds, the examiners kept 10 mL aqueous solution of glycyrrhizin (0.25 mM) in their mouth for 5 seconds or so, and then spat the solution out, and compared the sweetness intensity at that time with that of the aqueous sucrose standard solution, and evaluated the sweetness intensity with a number in a range of 0 to 15."}, "[2]": {"system": "oocytes not expressing ENaC", "test": "Control: inward current in oocytes not expressing ENaC", "type": "cell-based, Xenopus", "conditions": "same procedure", "protocol": "Inhibition activity of ENaC expressed in Xenopus oocytes was measured according to the method described in “The journal of biological chemistry, 284 (2): pages 792-798 (2009)”. Specifically, trans-3-octenyl sulfate was added to oocytes expressed with ENaC complex, and the activity of ENaC was analyzed electrophysiologically in accordance with the procedures described below.\nTwo micro-glass electrodes were inserted into the oocyte, and the membrane potential was fixed at −60 mV. At this time, Na^+ ion influx induced by ENaC complex in a constantly active state was measured with replacement to change of the current amount. Namely, in 115 mM NaCl solution (115 mM NaCl, 2.5 mM KCl, 1.8 mM CaCl2, 1 mM NaHCO3, 1 mM MgCl2 and 10 mM HEPES, pH 7.4) and under circumstances where inward current was caused by the oocytes, trans-3-octenyl sulfate dissolved in the same solution was administered.\nThis effect was similar to that of an existing ENaC inhibitor amiloride."}, "[3]": {"test": "Evaluation of sweetness (3)/(4): sweetness intensity over time against sucrose standard solutions", "type": "in vivo, human", "protocol": "(§1) To seven examiners, 4 kinds of 10 mL aqueous sucrose standard solutions (2.5, 5.0, 7.5 and 10.0 wt %) were presented. The examiners kept each of the solutions in their mouth for 5 seconds or so, and then spat the solution out, and were asked to consider the sweetness intensity at that time (0 to 15) to be 2.5, 5, 7.5 and 10, respectively. Next, the examiners kept 10 mL solution of 10 mM trans-3-octenyl sulfate in their mouth for 5 seconds or so, and then spat the solution out, and compared the sweetness intensity at that time with that of the aqueous sucrose standard solution, and evaluated the sweetness intensity with a number in a range of 0 to 15. Then, the examiners kept 10 mL pure water for 5 minutes at an interval of 30 seconds, and then spat the solution out, and evaluated the sweetness intensity at that time in the same manner.\nas §1, with “four” for “4”, “cis-3-octenyl” for “trans-3-octenyl”, “water in their mouth” for “water”"}, "[4]": {"test": "Evaluation of sweetness (1)/(2): presence or absence of sweetness judged by examiners", "type": "in vivo, human", "protocol": "Trans-3-octenyl sulfate was dissolved in water to be 1 wt %, which was taken as a test sample. Six examiners kept 50 μL of the prepared test sample in their mouth, and then drunk some water, and judged for presence or absence of sweetness.\nCis-3-octenyl sulfate was dissolved in water to 1 wt %, which was taken as a test sample. Four examiners kept 50 μL of the prepared test sample in their mouth, and then drunk some water, and judged presence or absence of sweetness."}, "[5]": {"conditions": "1 wt % in water, 50 μL kept in mouth, then water (13 ml), six examiners (trans), four examiners (cis)"}},
  "note": "Structures can show the parent of a compound that is named as a salt.",
  "data": [
    {"smiles": "CCCC/C=C/CCOS(=O)(=O)O", "note": "[trans-3-octenyl sulfate]", "values": [
      {"measurement": "Effect of previous intake on the sweetness of the sweetener", "setting": "[1]", "value": "effect of reinforcing the sweetness of the sweetener"},
      {"measurement": "Effect on inward current in oocytes not expressing ENaC", "setting": "[2]", "value": "not recognized"},
      {"measurement": "Examiners who recognized the sweetness by virtue of intake of water", "setting": "[3]; 10 mL of 10 mM solution, then pure water every 30 seconds", "value": "Seven out of the seven"},
      {"measurement": "Duration of sweetness", "setting": "[3]; 10 mL of 10 mM solution, then pure water every 30 seconds for 5 minutes", "value": "the sweetness lasted for a certain time"},
      {"measurement": "Sweetness intensity (mean)", "setting": "[3]; Time 0 minute, 10 mL of 10 mM solution kept 5 seconds, scale 0 to 15 vs sucrose standards, seven examiners", "value": 0.0},
      {"measurement": "Sweetness intensity (mean)", "setting": "[3]; Time 0.5 minute, on keeping 10 mL pure water, after 10 mM solution, scale 0 to 15", "value": 1.7},
      {"measurement": "Sweetness intensity (mean)", "setting": "[3]; Time 1 minute, on keeping 10 mL pure water, after 10 mM solution, scale 0 to 15", "value": 3.6},
      {"measurement": "Sweetness intensity (mean)", "setting": "[3]; Time 1.5 minute, on keeping 10 mL pure water, after 10 mM solution, scale 0 to 15", "value": 3.9},
      {"measurement": "Sweetness intensity (mean)", "setting": "[3]; Time 2 minute, on keeping 10 mL pure water, after 10 mM solution, scale 0 to 15", "value": 3.6},
      {"measurement": "Sweetness intensity (mean)", "setting": "[3]; Time 2.5 minute, on keeping 10 mL pure water, after 10 mM solution, scale 0 to 15", "value": 3.0},
      {"measurement": "Sweetness intensity (mean)", "setting": "[3]; Time 3 minute, on keeping 10 mL pure water, after 10 mM solution, scale 0 to 15", "value": 2.1},
      {"measurement": "Sweetness intensity (mean)", "setting": "[3]; Time 3.5 minute, on keeping 10 mL pure water, after 10 mM solution, scale 0 to 15", "value": 1.1},
      {"measurement": "Sweetness intensity (mean)", "setting": "[3]; Time 4 minute, on keeping 10 mL pure water, after 10 mM solution, scale 0 to 15", "value": 0.8},
      {"measurement": "Sweetness intensity (mean)", "setting": "[3]; Time 4.5 minute, on keeping 10 mL pure water, after 10 mM solution, scale 0 to 15", "value": 0.5},
      {"measurement": "Sweetness intensity (mean)", "setting": "[3]; Time 5 minute, on keeping 10 mL pure water, after 10 mM solution, scale 0 to 15", "value": 0.6},
      {"measurement": "No sweetness felt (number of examiners)", "setting": "[4]; [5]", "value": 0},
      {"measurement": "Sweetness felt (number of examiners)", "setting": "[4]; [5]", "value": 6},
      {"measurement": "Duration of sweetness", "setting": "[4]; 1 wt %, 50 μL, then water", "value": "the sweetness lasted for a certain time"}
    ]}
  ]
}
